The target of assay [1] is His-tagged human recombinant kinase full-length Akt1 (Homo sapiens (Human), UniProt P31749). The assay is described as follows: Akt1 kinase assay (TR-FRET). The class given is biochemical. To be noted: 10 μM ATP, read-out: Akt1, median IC50. The source says:
Biological Assay 1.0: Akt1 Kinase Assay
Akt1 inhibitory activity of compounds of the present invention was quantified employing the Akt1 TR-FRET assay as described in the following paragraphs.
His-tagged human recombinant kinase full-length Akt1 expressed in insect cells was purchased form Invitrogen (part number PV 3599). As substrate for the kinase reaction the biotinylated peptide biotin-Ahx-KKLNRTLSFAEPG (C-terminus in amide form) was used which can be purchased e.g. from the company Biosynthan GmbH (Berlin-Buch, Germany).
For the assay 50 nl of a 100 fold concentrated solution of the test compound in DMSO was pipetted into a black low volume 384 well microtiter plate (Greiner Bio-One, Frickenhausen, Germany), 2 μl of a solution of Akt1 in assay buffer [50 mM TRIS/HCl pH 7.5, 5 mM MgCl2, 1 mM dithiothreitol, 0.02% (v/v) Triton X-100 (Sigma)] were added and the mixture was incubated for 15 min at 22° C. to allow prebinding of the test compounds to the enzyme before the start of the kinase reaction. Then the kinase reaction was started by the addition of 3 μl of a solution of adenosine-tri-phosphate (ATP, 16.7 μM=>final conc. in the 5 μl assay volume is 10 μM) and substrate (1.67 μM=>final conc. in the 5 μl assay volume is 1 μM) in assay buffer and the resulting mixture was incubated for a reaction time of 60 min at 22° C. The concentration of Akt1 in the assay was adjusted depending of the activity of the enzyme lot and was chosen appropriate to have the assay in the linear range, typical enzyme concentrations were in the range of about 0.05 ng/μl (final conc. in the 5 μl assay volume).
The reaction was stopped by the addition of 5 μl of a solution of HTRF detection reagents (200 nM streptavidine-XL665 [Cisbio] and 1.5 nM anti-phosho-Serine antibody [Millipore, cat. #35-001] and 0.75 nM LANCE Eu-W 1024 labeled anti-mouse IgG antibody [Perkin Elmer]) in an aqueous EDTA-solution (100 mM EDTA, 0.1% (w/v) bovine serum albumin in 50 mM HEPES/NaOH pH 7.5).
The resulting mixture was incubated 1 h at 22° C. to allow the binding of the biotinylated phosphorylated peptide to the streptavidine-XL665 and the antibodies. Subsequently the amount of phosphorylated substrate was evaluated by measurement of the resonance energy transfer from the anti-mouse-IgG-Eu-Chelate to the streptavidine-XL665. Therefore, the fluorescence emissions at 620 nm and 665 nm after excitation at 350 nm was measured in a HTRF reader, e.g. a Rubystar (BMG Labtechnologies, Offenburg, Germany) or a Viewlux (Perkin-Elmer). The ratio of the emissions at 665 nm and at […] was taken as the measure for the amount of phosphorylated substrate. The data were normalised (enzyme reaction without inhibitor=0% inhibition, all other assay components but no enzyme=100% inhibition).
Background: In TR-FRET formats the signal depends on donor and acceptor labels being close together.

Another assay relates to phospho-AKT at S473. Description: Cellular p-AKT1/2/3-S473 assay in KPL-4 cells. The class given is cell-based. To be noted: Homo sapiens, KPL4; KPL-4 breast tumour cell line, 2 hours treatment; read-out: pAKT-S743 median IC50. As for the experimental part:
The phospho-substrates of PI3K-AKT-mTOR axis were used as the readouts to reflect pathway inhibition. Cells were seeded at 60-80% confluency per well in 96-well cell culture plates. After overnight incubation at 37° C. 5% CO2, cells were treated with compounds and vehicle at 37° C. for 2 hours. […] All measurements where at least done in duplicates and confirmed by independent repetition. Alternatively pAKT-S473 was measured using the “Akt Duplex” of the MULTI-SPOT® Assay System (Fa. Meso Scale Discovery, Cat# N41100B-1) following manufacturers instructions. Each assay used 20 μg of protein extract and measured total AKT and p-AKT content simultaneously in one well. All measurements where at least done in duplicates and confirmed by independent repetition. Values for P-AKT are expressed as percentage of P-AKT level compared to total-AKT content of the extracts.

The test system of assay [2] is KPL-4 breast cancer cell line. Description: Tumor cell proliferation assay (CellTiter-Glo, 72 h), KPL-4. It counts as cell-based. The note with it: Homo sapiens, KPL4, 72 h drug exposure; for inhibition at 1.67 µM: read-out: KPL-4 median inhibition at 1.67 μM (%). The protocol: Biological Assay 4.0: Tumor Cell Proliferation Assays
Compounds were tested in a cell-based assay that measures the capacity of the compounds to inhibit tumour cell proliferation following a 72 h drug exposure. Cell viability is determined using CellTiter-Glow® (CTG, Promega, cat# G7571/2/3). The CellTiter-Glo® Luminescent Cell Viability Assay is a homogeneous method to determine the number of viable cells in culture. Detection is based on using the luciferase reaction to measure the amount of ATP from viable cells. The amount of ATP in cells correlates with cell viability. Within minutes after a loss of membrane integrity, cells lose the ability to synthesize ATP, and endogenous ATPases destroy any remaining ATP; thus the levels of ATP fall precipitously.
Cells were plated at 3000-5000 cells/well (depending on the cell lines) in 90 μL growth medium on MTPs (Corning; #3603, black plate, clear flat bottom). For each cell line assayed, cells were plated onto a separate plate for determination of […] at t=0 hour and t=72 hour time points. Following overnight incubation at 37° C., chemiluminescence values for the t=0 samples were determined after adding 10 μl medium and 100 μl CTG solution according to manufacture protocol. Plates for the t=72 hour time points were treated with compounds diluted into growth medium at ten times final concentration added in 10 μL to the cell culture plate. Cells were then incubated for 72 hours at 37° C. Chemiluminescence values for the t=72 hour samples were determined. […] Experiments were controlled using a reference compound as standard.
Preferred compounds of the present invention show in this assay an inhibition of cell growth of cell lines such as the KPL-4 breast cancer cell line and the MCF-7 breast tumour cell line ([…], hormone dependent) with a median IC50 of <10 μM, more preferably, median IC50≦1 μM.
(In ATP-based viability assays light output follows the ATP content of the culture.)

Each structure is given as a SMILES string.

Chain of His-tagged human recombinant kinase full-length Akt1 (P31749 whole entry): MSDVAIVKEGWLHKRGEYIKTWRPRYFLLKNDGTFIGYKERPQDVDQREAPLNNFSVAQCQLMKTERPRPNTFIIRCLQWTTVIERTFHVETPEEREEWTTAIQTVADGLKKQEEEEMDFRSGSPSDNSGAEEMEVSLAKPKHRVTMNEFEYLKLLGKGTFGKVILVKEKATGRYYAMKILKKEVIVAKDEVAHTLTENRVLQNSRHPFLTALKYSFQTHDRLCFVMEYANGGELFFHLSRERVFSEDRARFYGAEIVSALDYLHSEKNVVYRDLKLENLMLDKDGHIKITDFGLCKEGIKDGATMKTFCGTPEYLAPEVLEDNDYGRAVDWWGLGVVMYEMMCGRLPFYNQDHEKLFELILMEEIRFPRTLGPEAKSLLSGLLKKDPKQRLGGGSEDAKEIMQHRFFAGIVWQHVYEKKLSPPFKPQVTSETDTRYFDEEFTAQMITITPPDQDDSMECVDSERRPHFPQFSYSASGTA

Turning to `Cc1cn2c(-c3ccccc3)c(-c3ccc(C4(N)CCC4)cc3)nc2c(C)n1` [Example 2, 1-[4-(6,8-Dimethyl-3-phenylimidazo[1,2-a]pyrazin-2-yl)phenyl]-cyclobutanamine], the figures for the 50% inhibitory concentration (IC50) (in assay [1]; in the assay on phospho-AKT at S473; in assay [2]) were 61 nM, 27 nM and 710 nM, respectively. For the same compound, the inhibition (commonly the drop in the measured response relative to a control, in per cent) at 1.67 µM in assay [2] was 68%.
For the compound `CCc1cn2c(-c3ccccc3)c(-c3ccc(C4(N)CCC4)cc3)nc2c(OC)n1` [Example 4, 1-[4-(6-Ethyl-8-methoxy-3-phenylimidazo[1,2-a]pyrazin-2-yl)phenyl]cyclobutanamine], the IC50 (in general, the concentration that gives 50% inhibition) in assay [1] was 110 nM; in the assay with phospho-AKT at S473, 85 nM; in assay [2], 1200 nM. For the same compound, the inhibition at 1.67 µM in assay [2] was found to be 64.4%.
As to `COC(=O)c1cn2c(-c3ccccc3)c(-c3ccc(C4(N)CCC4)cc3)nc2c(OC)n1` [Example 7, Methyl 2-[4-(1-aminocyclobutyl)phenyl]-8-methoxy-3-phenylimidazo[1,2-a]pyrazine-6-carboxylate], the values for the IC50 (in assay [1]; in the assay with phospho-AKT at S473; in assay [2]) were 64 nM, 44 nM and 5500 nM, respectively. Moreover, in assay [2], the inhibition at 1.67 µM stood at 22%.
As to `COc1nc(Br)cn2c(-c3ccccc3)c(-c3ccc(C4(N)CCC4)cc3)nc12` [Example 3, 1-[4-(6-Bromo-8-methoxy-3-phenylimidazo[1,2-a]pyrazin-2-yl)phenyl]cyclobutanamine], the IC50 in assay [1] turned out to be 22 nM; in the assay with phospho-AKT at S473, 190 nM; in assay [2], 1700 nM. Further, the inhibition at 1.67 µM in assay [2] is 57%.
`COc1nc(C(N)=O)cn2c(-c3ccccc3)c(-c3ccc(C4(N)CCC4)cc3)nc12` [Example 8, 2-[4-(1-Aminocyclobutyl)phenyl]-8-methoxy-3-phenylimidazo[1,2-a]pyrazine-6-carboxamide]: the IC50 in assay [1] is 29 nM; in the assay on phospho-AKT at S473, 7.5 nM; in assay [2], 150 nM. The inhibition at 1.67 µM in assay [2] amounted to 83.6%.
On the same counts, the results for `NC(=O)c1cn2c(-c3ccccc3)c(-c3ccc(C4(N)CCC4)cc3)nc2cn1` [Example 6, 2-[4-(1-Aminocyclobutyl)phenyl]-3-phenylimidazo[1,2-a]pyrazine-6-carboxamide] are 110 nM, 20 nM, 290 nM and 79.5%.

The values are drawn from patent publication US9260435B2, “Substituted imidazopyrazines as Akt kinase inhibitors” (Bayer Intellectual Property GmbH, priority 2012, dated 2016).
